The text below walks through data of publication PMC7322745 (Journal of Ginseng Research, 2019).

The format of this data set is in vivo, human. The following applies: for Tmax: both, human, serum, oral, 3 g, mean Tmax, all participants (RG and FRG groups together).

The Tmax is the time at which the peak concentration occurs. With `CC(C)=CCC[C@](C)(O[C@@H]1O[C@H](CO)[C@@H](O)[C@H](O)[C@H]1O)[C@H]1CC[C@]2(C)[C@@H]1[C@H](O)C[C@@H]1[C@@]3(C)CC[C@H](O[C@@H]4O[C@H](CO)[C@@H](O)[C@H](O)[C@H]4O)C(C)(C)[C@@H]3CC[C@]12C` [F2, ginsenoside F2], the Tmax worked out at 9.32 ± 3.38 h. Further, the “AUC in the FRG group relative to the RG group” value (mean AUC, FRG group vs RG group) is on record as “more than six”.

For the molecule `CC(C)=CCC[C@](C)(O[C@@H]1O[C@H](CO)[C@@H](O)[C@H](O)[C@H]1O)[C@H]1CC[C@]2(C)[C@@H]1[C@H](O)C[C@@H]1[C@@]3(C)CC[C@H](O[C@@H]4O[C@H](CO)[C@@H](O)[C@H](O)[C@H]4O[C@@H]4O[C@H](CO)[C@@H](O)[C@H](O)[C@H]4O)C(C)(C)[C@@H]3CC[C@]12C` [Rd, ginsenoside Rd], the Tmax stood at 9.41 ± 4.42 h.
